Measurements published in ChEMBL document CHEMBL1146268, “Ponapensin, a cyclopenta[bc]benzopyran with potent NF-kappaB inhibitory activity from Aglaia ponapensis” (Bioorg Med Chem Lett, 2007).
In brackets after ≈: the same amount, converted by molar mass.

Assays:
[1] = Inhibition of NF-kappaB by ELISA assay; set-up: species or system Homo sapiens
MCF7 = experiment: Cytotoxicity against MCF7 cells; assay type: functional; settings: Homo sapiens, read-out: ED50 (the source's name)
Lu1 = experiment: Cytotoxicity against Lu1 cells; assay type: functional; settings: Homo sapiens, read-out: ED50 (the source's name)
LNCaP = experiment: Cytotoxicity against LNCaP cells; assay type: functional; settings: Homo sapiens, read-out: ED50 (the source's name)

Structure (SMILES) | IC50 [1] [nM] | other results
COc1ccc(C2OC(=O)c3c(OC)cc(OC)cc32)cc1 (centres undefined) | 1900 | 
C/C=C1/C(=O)C[C@H]2[C@@H]3CC=C4[C@@H](O)[C@@H](O)CC[C@]4(C)[C@H]3CC[C@]12C |  | EC50 (MCF7): 4.2 µg/mL (≈ 12.7 µM); EC50 (Lu1): 4.6 µg/mL (≈ 13.9 µM); EC50 (LNCaP): 4.7 µg/mL (≈ 14.2 µM)
COc1ccc([C@]23Oc4cc(OC)cc(OC)c4[C@](O)([C@H](C(=O)N4CCC[C@@H]4OC)[C@H]2c2ccccc2)[C@@H]3O)cc1 (relative stereo) [PONAPENSIN] | 60 | 
CCC(C)C(=O)N[C@@H]1CCCN1C(=O)[C@@H]1[C@@H](c2ccccc2)[C@]2(c3ccc(OC)cc3)Oc3cc(OC)cc(OC)c3[C@@]1(O)[C@@H]2OC(C)=O (some centres undefined) [4-EPIAGLAIN A] | > 5000 | 
COC(=O)[C@H]1[C@@H](O)[C@@]2(O)c3c(OC)cc(OC)cc3O[C@@]2(c2ccc(OC)cc2)[C@@H]1c1ccccc1 [AGLAFOLIN] | 2300 | 
CCC(C)C(=O)N[C@@H]1CCCN1C(=O)[C@H]1[C@H](c2ccccc2)[C@]2(c3ccc(OC)cc3)Oc3cc(OC)cc(OC)c3[C@@]1(O)[C@@H]2O (some centres undefined) [AGLAIN B] | > 5000 | 
COc1ccc([C@@]23Oc4cc(OC)cc(OC)c4[C@]2(O)[C@H](O)[C@H](C(=O)N(C)C)[C@H]3c2ccccc2)cc1 [ROCAGLAMIDE] | 2000 | 
